Key:
[1] = Elution test of ethenzamide; format: physicochemical; details: molded product at 50 MPa or pulverized bulk drug
Method: 0.2 g of the obtained mixed powder was weighed and put in a mortar (manufactured by Kikusui Seisakusho, Ltd. using materials SUS2, 3) and compressed with a round plane mallet (manufactured by Kikusui Seisakusho, Ltd. using materials SUS2, […], trade name, PCM-1A, compression rate 1 cm/min) and after held at the aimed pressure for 10 seconds, a columnar molded product was taken out. […]
1 g of Cellulose Aggregate G was added to 10 mL of a solution in which ethenzamide (manufactured by API Co., Ltd., a powder grade was pulverized with a small size pulverizer) was dissolved in ethanol (manufactured by Wako Pure Chemical Industries, Ltd., special grade chemical) in a ratio of 5:95 and stirred by a magnetic stirrer for three minutes. The obtained dispersion was introduced into an evaporator and completely deprived of solvent to obtain a powder sample.
Similarly operating as in Example 14 except that the pressure at the time of preparing a columnar molded product from this powder was changed to 50 MPa and elution test was performed.
Only the ethenzamide pulverized by the method of Example 15 was subjected to elution test.

[2] = Reactivity with pharmacological agent (aspirin decomposition ratio on storage); format: physicochemical; details: 60° C., airtight, two weeks
Method: Aspirin (official crystal aspirin one pass treated with a small pulverizer φ 0.5 mm) and each cellulose sample were blended by powder-powder in 5/5 (total amount: 0.5 g) in dry process and mixed in glass sample bottle and stored with airtight stopper (60° C.) in an oven (manufactured by Tabai Espec, trade name, perfect oven) for two weeks and decomposition ratio was measured. […] 0.25 g of aspirin after stored (0.5 g for powder blend product) was introduced into a 50 mL measuring flask and added with ethanol to total 50 mL and shaken for five minutes. The resulted ethanol solution was filtered and the filtrate was transferred to a 100 mL measuring flask and added with ethanol to total 100 mL. 1 mL of this ethanol solution and 1 mL of the above color identification test liquid were introduced into a 50 mL measuring flask and added with pure water to total 50 mL and absorbance at wavelength 532 nm was measured with an ultraviolet absorbance measuring instrument (manufactured by JASCO Corp.). The decomposition ratio was calculated as follows: Decomposition ratio=(1−(absorbance after stored/absorbance before stored))×100(%).

Structure (SMILES)	Dissolution Rate after 1 hour [1]	aspirin decomposition ratio [2]
CCOc1ccccc1C(N)=O [Bulk Ethenzamide, ethenzamide]	9%	
CC(=O)Oc1ccccc1C(=O)O [aspirin, Aspirin]		15%
